Legend:
[1] = Dissociation constant was evaluated; format: physicochemical
[2] = Rate of hydrolysis of nitrocefin by compound was evaluated in water; format: ADME; settings: buffer

pKa [1]	Activity [2] [M⁻¹ s⁻¹]	SMILES
9.4	2.52e-08	Cl.Cl.[Zn+2].c1ccc(CNCc2ccccn2)nc1
9	6.5e-09	[Cl-].[S-]CCN(Cc1ccccn1)Cc1ccccn1.[Zn+2]

— ChEMBL document CHEMBL1133196, “A model for ZnII-containing-beta-lactamase: synthesis, X-ray crystal structure of a zinc(II) complex bearing thiol group and hydrolysis of phosphate diester” (Bioorg Med Chem Lett, 2000)
